Laboratory results reported in patent publication US8617563B2, “Antichlamydial agents” (Duke University, priority 2011, dated 2013).

Columns and labels:
[1] = target: T1, CPAF (Chlamydia trachomatis serovar D, UniProt O84866); type: biochemical, C. trachomatis; design: 6xHis; made in house; host or cells: E. coli (pET30b); conditions: GST-tagged chlamydial substrates, 37° C., 20 min
Procedure: FIG. 4 depicts (A) Recombinant Chlamydia ORFs were tested for sensitivity to host and bacterial derived proteases. […] Purified his-tagged CPAF was incubated with GST-tagged chlamydial substrates at 37° C. for 20 min with increasing amounts of lactacystin. Cleavage products were run on an SDS PAGE gel and visualized with Coomassie blue staining. (C) Schematic summary of CPAF targets. […] Membranes from Chlamydia-infected HeLa cells were harvested and purified at 0, 24, 36 and 48 hours post-infection, and the abundance of the chlamydial proteins Ct005, IncC and IncD were monitored with specific antibodies. Na/K ATPase and IncG served as host and bacterial-loading controls, respectively.
(§1) Cytosols from Chlamydia-infected HeLa cells (40 hrs) or recombinant his-tagged CPAF were pre-treated with rabbit polyclonal anti-CPAF or anti-IncA antisera, and incubated with GST-tagged Chlamydia proteins for 20 min at 37° C. […] Three example proteins shown include a type-III secretion (T3S) core component (CdsQ) a T3S chaperone (Mcsc) and a T3S needle component (Ct584). Processing of recombinant proteins in A-B were monitored by immunoblot analysis with specific antibodies. (C) Protease inhibitor profile of recombinant CPAF. Example shown for the chlamydial substrate GST-IncC. Degradation products were visualized by SDS-PAGE followed by staining with Coomassie blue. […]
Uninfected and HeLa cells pre-infected with L2 for 30 hrs were treated with inhibitory peptides and infected with EBs for 10 min Tarp translocation was indirectly visualized with an anti-phosphotyrosine antibody (A) and quantified by counting 50 separate cells (B). The stability of newly translocated Tarp was assessed by infecting cells as in (A) but with S^35-labeled EBs, followed by sequential immunoprecipitation of Tarp and MOMP and Phosphoimager analysis of precipitated material (C (I-IV)). […] IC50 values were determined by assessing CPAF cleavage of an Abz-tagged CPAF substrate (SEQ ID NO:9) by HPLC. […] Extracellular bacteria were determined. […] The number of internalized EBs was quantified per cell (H). […]
Target sequence in this assay (O84866 1-234, added parts left off): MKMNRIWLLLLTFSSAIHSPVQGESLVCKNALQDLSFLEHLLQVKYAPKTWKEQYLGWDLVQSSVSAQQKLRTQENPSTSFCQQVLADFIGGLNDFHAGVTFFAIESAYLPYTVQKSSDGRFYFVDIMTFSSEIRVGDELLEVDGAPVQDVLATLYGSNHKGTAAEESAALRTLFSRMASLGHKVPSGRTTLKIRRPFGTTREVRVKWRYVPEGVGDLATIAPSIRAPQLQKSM
Target sequence in this assay (O84866 276-601): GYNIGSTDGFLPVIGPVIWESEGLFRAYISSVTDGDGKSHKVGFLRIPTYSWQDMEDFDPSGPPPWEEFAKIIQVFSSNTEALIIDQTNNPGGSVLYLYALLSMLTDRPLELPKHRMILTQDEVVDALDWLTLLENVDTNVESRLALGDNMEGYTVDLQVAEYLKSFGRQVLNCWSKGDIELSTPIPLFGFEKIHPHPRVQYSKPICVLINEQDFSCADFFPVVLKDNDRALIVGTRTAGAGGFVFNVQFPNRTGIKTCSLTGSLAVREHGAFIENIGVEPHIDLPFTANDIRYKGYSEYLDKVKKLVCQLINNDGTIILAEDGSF

[2] = target: T1, CPAF; assay: HPLC-based CPAF inhibition assay with Abz-tagged model substrate (SEQ ID NO:9); type: biochemical, C. trachomatis; design: 6xHis; made in house; host or cells: E. coli BL21 (DE3), plasmid pET30b-CPAF; conditions: CPAF 62.5 nM, substrate SEQ ID NO:9 0.5 mM, inhibitor 0-240 μM
Procedure: FIG. 1 depicts the results of HPLC-based CPAF inhibition assays using a model CPAF substrate (SEQ ID NO:9) to compare inhibition of CPAF protease activity by SEQ ID NO:7, SEQ ID NO:2, and lactacystin. HPLC-based assays were performed in a final volume of 100 μL containing assay buffer, CPAF (62.5 nM), substrate 1 (0.5 mM), and varying concentrations of inhibitor (0-240 μM).
HPLC-based assays comprised an Abz-tagged model CPAF substrate (SEQ ID NO:9) and were performed in a final volume of 100 μL containing 150 mM NaCl, 50 mM Tris pH 7.50, purified CPAF (62.5 nM), fluorescent-tagged model CPAF substrate (0.5 mM), and varying concentrations of each candidate compound (0-240 μM). IC50 values were determined by pre-incubating CPAF with varying concentrations of candidate compound for 5 min at room temperature prior to initiation of the reaction via the addition of model CPAF substrate. Reactions were allowed to proceed for 90 seconds at 25° C., followed by removal of 80 μL aliquots and quenching by the addition of 1.2 M HCl (40 μL). Data were converted to percent activity relative to a control reaction without candidate compound and fit to the following equation using GraFit v6.0, where [I] is the concentration of candidate compound and s is a slope factor: […]
Target sequence in this assay (O84866 276-601): as above
Target sequence in this assay (O84866 1-234, added parts left off): as the sequence (O84866 1-234, added parts left off) above

[3] = target: T1, CPAF; type: biochemical, C. trachomatis; design: endogenous in cells; host or cells: HeLa cells infected with C. trachomatis LGV-L2 434/Bu (the bacteria make the protein and secrete it into the host cytosol); conditions: cytosol pre-treated with inhibitor or antibody
Procedure: as §1, with “FIG. 5 depicts (A) that Polyclonal anti-CPAF antisera blocks proteolysis of chlamydial substrates. Cytosols” for “Cytosols”, “GST-IncC.” for “GST-IncC. Degradation products were visualized by SDS-PAGE followed by staining with Coomassie blue.”
Target sequence in this assay (O84866 276-601): as the sequence (O84866 276-601) above
Target sequence in this assay (O84866 24-234): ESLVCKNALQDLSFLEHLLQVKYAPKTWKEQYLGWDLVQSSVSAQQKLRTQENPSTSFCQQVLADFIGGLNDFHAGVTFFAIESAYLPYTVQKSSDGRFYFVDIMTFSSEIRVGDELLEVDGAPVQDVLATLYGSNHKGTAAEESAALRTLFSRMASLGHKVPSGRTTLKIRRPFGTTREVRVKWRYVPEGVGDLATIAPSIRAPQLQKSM
Recombinant CPAF was generated using pET30b (Huang et al., Cell Host & Microbe, 4:529-542 (2008). For in vitro cleavage assays, Chlamydia ORFs were expressed in either yeast or E. coli. Crude recombinant proteins were incubated for 30 minutes with cytosol from uninfected or LGV-L2 infected (40 h) HeLa cells, and processing was assessed by SDS-PAGE and immunoblotting using standard techniques. Approximately 8% of the expressed chlamydial proteins were sensitive to degradation after incubation with cytosol derived from infected cells (FIG. 3A). Processing ranged from the generation of distinct cleavage fragments to complete degradation (FIG. 3B). […]

[4] = target: T1, CPAF; design: endogenous in cells; host or cells: HeLa cells infected with C. trachomatis LGV-L2 434/Bu (the bacteria make the protein and secrete it into the host cytosol); conditions: C. trachomatis LGV-L2 434-infected HeLa cells; Kumar et al. 2008; cited from earlier work
Target sequence in this assay (O84866 276-601): as the sequence (O84866 276-601) above
Target sequence in this assay (O84866 24-234): as the sequence (O84866 24-234) above

CC(=O)N[C@@H](CSC(=O)[C@]1([C@@H](O)C(C)C)NC(=O)[C@H](C)[C@@H]1O)C(=O)O [lactacystin]
Inhibition of proteolysis by recombinant CPAF [1]: inhibited
IC50 [2]: 10.2 ± 2.3 µM
Protection of chlamydial proteins from degradation by cytosols of Chlamydia-infected cells [3]: protected from degradation
Vimentin state in infected HeLa cells treated with lactacystin [4]: fiber oligomerization of vimentin
